The assay deals with CEM cells HIV-1 protection, formazan growth assay. Kind of assay: NCI AIDS Antiviral Assay. Particulars: for IC50: measured here: growth of uninfected CEM cells. Summed up: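 Category rules: moderately active means at least 50% protection on retest, and confirmed active means 100% protection reproducibly. The underlying data came from a formazan growth assay in HIV-1-infected CEM cells.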

Activity calls are given as the source filed them.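 The calls were made as follows: active = compounds giving half or more protection of infected cells from virus-caused growth loss, again on retest; inactive = the rest.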

Consider `c1ccc(SC2CCCCO2)cc1` (stereo not drawn), for which the result was inactive. In general, EC50 refers to the concentration that produces a half-maximal response. The term IC50 denotes the concentration that inhibits the measured activity by half. Read a high IC50 as lower potency. For `COC(=O)C1C2COc3ccccc3C2=NC1c1ccc([N+](=O)[O-])cc1` (stereo not drawn), the EC50 is over 100 µM and the IC50 is 13.8 µM. For `CCNCC(=O)O[C@]1(CC)C(=O)OCc2c1cc1n(c2=O)Cc2cc3ccccc3nc2-1`, in that order: over 10 µM and 0.0708 µM. For `Cc1cccc(N=Nc2c(C)nn(C(=O)CC(=O)Nc3ccccc3)c2C)c1`, in that order: over 200 µM and over 200 µM. For `C=CC1(c2ccccc2Cl)N/C(=C/OCC)CO1` (stereo not drawn), in that order: over 26.9 µM and over 26.9 µM. Take `CC(=O)Nc1ccc(OCC(O)CO)cc1` (stereo not drawn): the EC50 is over 1120 µM and the IC50 was determined as 832 µM.

With `COc1nc(=O)n(C2CC(N=[N+]=[N-])C(CO)O2)cc1C` (stereo not drawn), the EC50 is 17.4 µM and the concentration for half-maximal inhibition (IC50) is over 200 µM. For `C[N+](C)(C)CC(=O)N/N=C(/C=C/c1ccccc1)CC1OC(=O)c2ccccc21` (stereo not drawn), in that order: over 589 µM and over 589 µM. For `CCc1ccc(N2C(=O)C(CC(=O)O)SC23C(=O)N(Cc2ccccc2)c2ccccc23)cc1` (stereo not drawn), in that order: over 525 µM and 28.8 µM. For `Nc1ccccc1/C=C/c1ccnc2ccccc12`, in that order: 0.0631 µM and 40.7 µM. In the case of `COc1ccc(N=C2[Se]C(=NC(=O)c3ccccc3)N(c3ccc(OC)cc3)C2=Nc2ccc(OC)cc2)cc1`, the EC50 was over 200 µM and the IC50 was 102 µM. With `Cc1ccnc2c1C(=O)C(=O)C=C2N(C)C`, the result was inactive. For `CCCCCCCCCCCCCCCCc1c(C(=O)OC)[nH]c(=S)[nH]c1=O`, the EC50 is over 3.55 µM and the IC50 was over 3.55 µM. Consider `O/C(=C\c1nc2ccccc2nc1/C=C(\O)c1ccc(Cl)cc1)c1ccccc1`, for which the EC50 was over 200 µM and the IC50 worked out at 6.46 µM. For `COC(=O)N/N=C/c1oc(-c2ccccc2)c(-c2ccccc2)c1[N+](=O)[O-]`, in that order: over 61.7 µM and over 61.7 µM.

Regarding `C[N+]1(C)N=C(c2ccccc2)C=C1[O-]`, the EC50 was over 200 µM and the IC50 was over 200 µM. For `COc1cc2c(c(OC)c1OC)-c1ccc(OC)c(=O)cc1[C@@H](NC(C)=O)CC2`, the result was inactive. Regarding `COc1cccc(NC(=O)CC(=O)N2N=C(C)C(N=Nc3ccc(S(=O)(=O)CCOS(=O)(=O)O)cc3)C2=O)c1` (stereo not drawn), the EC50 is over 200 µM and the IC50 is 3.02 µM. For `CN(C)c1ccc(/C=C(/C(=O)O)c2csc(-c3nc(/C(=C\c4ccc(N(C)C)cc4)C(=O)O)cs3)n2)cc1`, in that order: over 34.7 µM and over 34.7 µM.

Take `O=c1[nH]c2cc([N+](=O)[O-])ccc2nc1/C=C(\O)c1ccc([N+](=O)[O-])cc1`: the EC50 was over 200 µM and the IC50 turned out to be 186 µM. For `Cc1cc2c(nn1)-c1ccccc1C2=O`, in that order: over 200 µM and 105 µM. For `C=C(Br)C[N+]12CN3CN(CN(C3)C1)C2`, in that order: over 200 µM and 55 µM.

Regarding `C=CCc1ccccc1CC1(OCC)OC(=O)c2ccccc21` (stereo not drawn), the EC50 was over 43.7 µM and the IC50 is over 43.7 µM. With `CC(=S)N=Cc1c(O)[nH]c(=O)[nH]c1=O`, the EC50 is over 200 µM and the IC50 was over 200 µM.

In the case of `Cc1cc(C(=O)c2ccccc2)c2oc(-c3ccccc3)c(Cl)c(=O)c2c1`, the EC50 is over 47.9 µM and the IC50 was over 47.9 µM.

`O=C(O)CN(c1ccccc1Cl)S(=O)(=O)c1ccccc1`: the result was inactive. Turning to `Cc1nnc2sc3ccccc3n12`, the outcome was inactive. With `Cc1ccc(NC(=O)OCC(COc2ccc(Cl)cc2)OC(=O)Nc2ccc(C)cc2)cc1` (stereo not drawn), the EC50 was over 15.5 µM and the IC50 was over 15.5 µM.

With `CCCc1nc2c(nc1C)C(=O)C=CC2=O`, the EC50 was over 832 µM and the IC50 worked out at 17 µM.

For the compound `CC1=Nc2ccccc2/C1=C\c1c(C)[nH]c2ccccc12`, the EC50 was 0.0631 µM and the concentration for half-maximal inhibition (IC50) is 11.5 µM. For `CN1CN(C)N(C(=O)c2ccccc2)CN1C(=O)c1ccccc1`, in that order: over 200 µM and 97.7 µM. For `CCOC(=O)C(C)(C)C(OP(=S)(OCC)OCC)=C(C)C`, in that order: over 3.09 µM and over 3.09 µM. For the compound `N#CC1=C(N2CCCC2)NC(=O)CC1=O`, the EC50 was over 200 µM and the concentration for half-maximal inhibition (IC50) was over 200 µM.

For the compound `CC1(C)O[C@@H](CCl)C[C@H](C#N)O1`, the EC50 is over 200 µM and the IC50 is over 200 µM.

Turning to `O=C1c2c(c3c4ccccc4n(COCCO)c3c3[nH]c4ccccc4c23)C(=O)N1Cc1ccccc1`, the EC50 is over 15.8 µM and the IC50 stood at 6.92 µM. Consider `CCN(CC)C(=O)Cn1c(-c2ccccc2)cc2ccccc21`, for which the EC50 was over 200 µM and the IC50 worked out at 40.7 µM. For `O=C1/C(=C/c2ccccc2Cl)COc2ccccc21`, in that order: over 19.1 µM and 11.2 µM. For `Cc1nn(C(=O)c2ccc(Cl)cc2)c2c1C(c1cccc([N+](=O)[O-])c1)SC(N)=N2` (stereo not drawn), in that order: 126 µM and 138 µM.

As for `CC(O)C(O)C(N)CC=O` (stereo not drawn), the EC50 is over 200 µM and the IC50 was over 200 µM. Regarding `O=C(CO[N+](=O)[O-])OCC(=O)c1ccccc1`, the result was inactive. Turning to `O=C1c2scnc2-c2nccc3c2c1nc1ccccc13`, the EC50 was over 2.51 µM and the IC50 is 0.457 µM.

On to `COc1cc2cc3c4cc(OC)c(OC)cc4cc[n+]3c(C)c2cc1OC` (tested in a mixture with another compound), for which the EC50 is over 93.3 µM and the IC50 stood at 4.17 µM. For `CC(C)c1ccc(/C=C2\CSC/C(=C\c3ccc(C(C)C)cc3)C2=O)cc1`, in that order: over 200 µM and 123 µM. For `O=c1[nH]c2ccc(C(F)(F)F)cc2nc1Cc1ccccc1`, in that order: over 200 µM and 74.1 µM.

Turning to `CCCCC[C@@H]1CCCC2C1CC[C@@H](CCCCCI)N2C(=O)OCC(Cl)(Cl)Cl` (stereo partly drawn), the result was inactive. With `CC[N+]1(C)CCC(O)(/C=C/c2ccc(Cl)c(Cl)c2)C(C(=O)/C=C/c2ccc(Cl)c(Cl)c2)C1` (stereo not drawn), the EC50 was over 200 µM and the IC50 worked out at 3.8 µM. For `COC(=O)c1ccc(Oc2nc3ccc(C(F)(F)F)cc3nc2-c2ccccc2)cc1`, in that order: over 200 µM and over 200 µM. For `CCN=C1Nc2ccccc2-n2c(nn3nc4ccccc4c23)N1CC`, in that order: 5.37 µM and over 200 µM. For `O=C1NC(O)c2c(F)cccc2O1` (stereo not drawn), in that order: over 200 µM and 132 µM. `COc1ccc(/C=C(\C#N)c2ccc([N+](=O)[O-])cc2)cc1OC`: the EC50 is 102 µM and the IC50 came out at 759 µM. For `CC(=O)c1c(O)ccc(O)c1-n1nc(C)c([N+](=O)[O-])c1C`, in that order: over 224 µM and over 224 µM.

As for `C#CCOC(=O)c1ccccc1OC(C)=O`, the EC50 is over 200 µM and the IC50 is over 200 µM. Turning to `O=C(Nc1ccc2c(O)cc(S(=O)(=O)O)cc2c1)Nc1ccc2c(O)c(N=Nc3ccc4cc(S(=O)(=O)O)ccc4c3)c(S(=O)(=O)O)cc2c1`, the result was active.

These data come from PubChem BioAssay AID179 (DTP/NCI, 2004).
